Patent EP0227593A1, “Use of chelating agents” (THE HOSPITAL FOR SICK CHILDREN, priority 1985, dated 1987)

Experiments:
[1] = test system: peripheral blood blast cell numbers; test: 20-day experimental treatment protocol in a leukemia patient: WBC and blast counts; assay type: in vivo, human
Experimental: With informed consent and following an approval by the Human Experimentation Committee of our institution, an experimental protocol was initiated: DFO, dissolved in sterile water was given by continuous infusion of 10 mg/kg/hour; cytosine arabinoside (Ara-C) dissolved in saline was given by i.v. push, 5 mg/kg/dose. When used consecutively, DFO was stopped 8-12 hours prior to cytosine arabinoside.
Deferoxamine (DFO) was given by continuous infusion 10 mg/kg/hr Cytosine-arabinoside (Ara-C) was given by i.v. push, 5 mg/kg/dose.

[2] = test system: peripheral blood blast cells; test: Surface marker analysis on PB smears before and after 48 hours of deferoxamine treatment (immunocytochemical method); assay type: in vivo, human; design: key to Ia intensity of staining / OKM1 intensity of staining / MY-4 intensity of staining: strong (+++); moderate (++); weak (+); conditions: PB smears after 48 hours of deferoxamine treatment
Experimental: Cell Culture Procedure: 2 x 10⁵ T-depleted cells were incubated with 40 % RPMI-methylcellulose, 20 % PHA-LCM, 10 % FCS, irradiated feeder cells (10⁵/dish), 16.6 % RPMI in 35 mm Petri dishes. The culture dishes were placed into a specialized modular incubator chamber (Billups-Rosenberg, Del Mar, CA) in a humidified atmosphere of 5 % O₂, 5 % CO₂ and balanced nitrogen for 3-6 days. After 2 days of incubation, the culture dishes were carefully examined. Colonies were counted at day 4. A cluster of more than 20 cells was defined as a colony. Individual colonies were plucked from the culture plates and smeared on microscope slides for further evaluation, using Wright stain and non-specific esterase staining. For control, 2 x 10⁵ irradiated feeder cells were cultured in the same assay system in each experiment to exclude their potential for colony formation Immunocytochemical Method: The cell surface antigens of air dried smears were detected using monoclonal antibodies and intestinal alkaline phosphatase, as previously described. This assay was performed to detect surface antigens on patients' PB and BM smears and colonies plucked from cultures. The slides were counter- stained in hematoxylin for light microscopy and the presence of surface antigen was indicated as bright red granular cellular inclusions. Morphologic details were well preserved, and a very high degree of correlation between morphology and surface antigen expression was observed. The intensity of staining was defined as strong (+++), moderate (++) and weak (+). Immunofluorescence Method: The cell surface phenotype was determined by indirect cell-surface fluorescence: A fluorescein-conjugated goat anti-mouse IgG (FAb')₂ was used as second antibody. The labelling was performed at room temperature in the presence of 0.2 % sodium azide. The percentage of cells with surface fluorescence was determined by counting cells stained in three replicate wells using an inverted phase-fluorescent microscope. Monoclonal Antibodies: The following monoclonal antibodies were used in these studies: anti-OKIa (Ortho Diagnostic Systems Inc. Raritan, NJ) to detect HLA-D framework antigen, anti-MY-7, anti-Mol and anti-MY-4 (coulter Immunology) to identify myelomonocytic markers, anti-Ig. anti-BA1, anti-BA2, anti-B1, and anti-B4 (Becton-Dickinson) to recognize cells of the B-cell lineage, anti-J5 (Coulter Immunology) to recognize cells bearing common ALL (CALLA) antigen and anti-Leu-1 and anti-Leu-4 (Coulter Immunology) to recognize cells of the T-cell lineage.
DFO and Blast Cell Differentiation: After 48 hours of continuous infusion of DFO as a single agent, striking changes in blast cell surface markers were detected immunocytochemically (Table 3). Prior to treatment, no blasts expressed OKM1 antigen, and only 8 % weakly expressed MY-4. After 48 hours, these two antigens were strongly detected in peripheral blood blast cells. Concomitantly with DFO therapy, there was a sharp decline from 37 % to 0 % of cells bearing B₄ antigen.
Immunologic surface markers were dermined before and after 48 hours of deferoxamine treatment on PB smears using the immunocytochemical method

[3] = Day 1, DFO continuous infusion 10 mg/kg/hr, 24 h
[4] = Day 3, after first 48 hours of DFO, Ara-C starts Day 3

CC(=O)N(O)CCCCCNC(=O)CCC(=O)N(O)CCCCCNC(=O)CCC(=O)N(O)CCCCCN [DFO, desferioxamine methanesulfonate]
Blasts [1, 3]: 4.22e+10 L⁻¹ | WBC [1, 3]: 6.25e+10 L⁻¹ | Blasts [1, 4]: 4.09e+10 L⁻¹ | WBC [1, 4]: 6.39e+10 L⁻¹ | B4 positive cells [2]: 0% | CALLA positive cells [2]: 0% | Ia intensity of staining [2]: +++ | Ia positive cells [2]: 80% | Leu-1 positive cells [2]: 0% | Leu-4 positive cells [2]: 0% | MY-4 intensity of staining [2]: +++ | MY-4 positive cells [2]: 60% | OKM1 intensity of staining [2]: +++ | OKM1 positive cells [2]: 40%
